What is called IC50 is the concentration needed to halve the response being measured.

The record followed here is patent US5583123A, “Certain tetrazole derivatives” (priority 1994, dated 1996).

The assay addresses T1, Endothelin converting enzyme (ECE) (Sus scrofa, UniProt A0A8W4FBH0).
T1 construct: partially purified from porcine primary aortic endothelial cells; endogenous in cells; host or cells: porcine primary aortic endothelial cells (partially purified by DE52 anion exchange)
T1 sequence (A0A8W4FBH0 1-751): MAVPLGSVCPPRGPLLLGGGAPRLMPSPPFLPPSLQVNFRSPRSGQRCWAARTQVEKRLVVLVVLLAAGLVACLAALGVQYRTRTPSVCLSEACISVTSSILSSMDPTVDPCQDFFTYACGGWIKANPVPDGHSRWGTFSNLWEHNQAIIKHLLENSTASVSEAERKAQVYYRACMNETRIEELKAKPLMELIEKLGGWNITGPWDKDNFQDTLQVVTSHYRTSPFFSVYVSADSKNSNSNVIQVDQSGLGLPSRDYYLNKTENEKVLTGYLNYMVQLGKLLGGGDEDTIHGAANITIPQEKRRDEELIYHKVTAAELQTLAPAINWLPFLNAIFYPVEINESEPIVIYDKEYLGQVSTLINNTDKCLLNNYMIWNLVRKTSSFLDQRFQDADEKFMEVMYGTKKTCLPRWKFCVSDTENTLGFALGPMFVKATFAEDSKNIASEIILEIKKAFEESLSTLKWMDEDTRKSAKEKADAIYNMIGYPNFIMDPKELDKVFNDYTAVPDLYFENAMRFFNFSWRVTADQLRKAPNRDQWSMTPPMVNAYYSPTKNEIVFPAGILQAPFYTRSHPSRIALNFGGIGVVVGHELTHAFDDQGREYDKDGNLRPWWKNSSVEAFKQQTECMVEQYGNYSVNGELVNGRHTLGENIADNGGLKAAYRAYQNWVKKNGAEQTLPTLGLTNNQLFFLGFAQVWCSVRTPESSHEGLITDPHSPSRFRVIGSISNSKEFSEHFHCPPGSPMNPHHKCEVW
Put plainly: in vitro assay for endothelin converting enzyme inhibition (radioimmunoassay of ET-1 formed from big ET-1). The assay is classed as biochemical, porcine. An excerpt:
The ECE inhibition can be determined as described in Biochem. Mol. Biol. Int. […] In vitro testing is most appropriate for the free phosphonic acids of the invention.

The compound `O=P(O)(O)C(CCc1cccc2ccccc12)N[C@@H](Cc1ccc(-c2ccccc2)cc1)c1nnn[nH]1` (single isomer, unassigned) [1 (a)] gave an IC50 (ECE partially purified from porcine primary aortic endothelial cells, pH 7.4 buffer) of approximately 370 nM. Under “comparison of the two diastereomers of Example 1”, the “relative activity as ECE inhibitor (diastereomer A versus diastereomer B)” value is on record as “more active”.
